Measured values reported in patent publication US10543247B2, “Aloe preparation for skin enhancement” (Woodcliff Skincare Solutions, Inc., priority 2007, dated 2020).

Columns and labels:
scald hyperalgesia = settings: compared with phenylbutazone; cited from earlier work
human TLR2 = biological target: T1, human TLR2 (Homo sapiens, UniProt O60603); test: TLR2 expression vector experiment: HEK 293 cells with NF-kappa B reporter and pDUO-hCD14/TLR2; format: cell-based; settings: HEK 293 cells expressing TLR2 and CD14; 6 hours; FIG. 10B
T1 construct: host or cells: HEK 293 cells, transient transfection by electroporation
T1 sequence (O60603 21-784): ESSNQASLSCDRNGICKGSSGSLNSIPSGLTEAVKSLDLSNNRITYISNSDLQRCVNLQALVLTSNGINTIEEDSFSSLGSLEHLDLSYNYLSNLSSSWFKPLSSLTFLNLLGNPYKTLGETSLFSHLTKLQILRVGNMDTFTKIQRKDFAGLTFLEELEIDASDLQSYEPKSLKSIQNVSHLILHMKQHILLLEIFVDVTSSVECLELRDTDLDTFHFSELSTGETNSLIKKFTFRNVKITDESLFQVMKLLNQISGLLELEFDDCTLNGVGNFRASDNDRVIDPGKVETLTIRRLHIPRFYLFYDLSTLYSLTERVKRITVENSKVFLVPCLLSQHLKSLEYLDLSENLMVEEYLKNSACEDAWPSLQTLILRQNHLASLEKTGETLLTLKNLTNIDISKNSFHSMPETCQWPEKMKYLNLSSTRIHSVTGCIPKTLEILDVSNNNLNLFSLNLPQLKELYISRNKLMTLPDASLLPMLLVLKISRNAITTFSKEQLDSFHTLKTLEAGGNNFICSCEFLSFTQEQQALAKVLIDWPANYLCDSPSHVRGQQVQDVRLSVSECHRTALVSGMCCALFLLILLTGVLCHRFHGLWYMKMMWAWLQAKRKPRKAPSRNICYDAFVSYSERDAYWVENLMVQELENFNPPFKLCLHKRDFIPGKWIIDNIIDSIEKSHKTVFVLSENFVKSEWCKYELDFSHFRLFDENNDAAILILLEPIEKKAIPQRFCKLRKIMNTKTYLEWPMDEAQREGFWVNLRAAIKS
Description: HEK 293 cells were cultured in DMEM/F12 medium supplemented with fetal bovine serum (10%) and 1% penicillin-streptomycin at 37° C., under 5% CO2. Actively growing cells were transiently transfected with the appropriate plasmid(s) using electroporation (at 150 V and one 70-ms pulse). Following electroporation, cells were plated at a density of 5×10^4 cells in 200 μl/well of culture medium. After 48 hours, agents to be tested were added to transfected cells. Six hours after addition of samples, cells were harvested and luciferase activity measured. The NF-kappa B plasmid construct (pBIIXLUC) contained two copies of NF-kappa B motif from HIV/IgK. Plasmids co-expressing human CD14 and human TLR2 (pDUO-hCD14/TLR2) were purchased from InvivoGen. Zymosan was purchased from Sigma, Staphylococcus aureus peptidoglycan from Fluka and ultra pure Salmonella minnesota LPS from List Biological Laboratories, Inc.
FIGS. 10A-10B depict that AloeEx (batch 2-5-05) acts through TLR2. HEK 293 cells (cell line with minimal TLR expression) were transiently transfected with a luciferase reporter gene construct containing two binding sites for NF-kappa B, alone (FIG. 10A), or in combination with the pDUO-hCD14/TLR2 expression plasmid (FIG. 10B). […] Luciferase activity was determined 6 hours after addition of agents.

Substance: O-acetylated-D-mannan [O-acetylated-D-mannan (T-2-HN)]
- inhibitory effect on scald hyperalgesia (scald hyperalgesia): more marked inhibitory effect than phenylbutazone

Substance: peptidoglycan
- activation of NF-kappa B (human TLR2): also activated NF-kappa B
